Earlier results on 3 compounds are cited in US11059813B2, “Polymorphic forms of Dasatinib” (BIOCON LIMITED, priority 2017, dated 2021).

For data set [1] the following is noted: co-former alone; for thermal stability: melting points greater than 300° C.
The next data set deals with rat. As to conditions: in vivo, po.
For data set [2] the following is noted: co-former alone.

For the compound `Cc1nc(Nc2ncc(C(=O)Nc3c(C)cccc3Cl)s2)cc(N2CCN(CCO)CC2)n1` [Dasatinib, N-(2-chloro-6-methylphenyl)-2-[[6-[4-(2-hydroxyethyl)-1-piperazinyl]-2-methyl-4-pyrimidinyl]amino]-5-thiazole carboxamide], the solubility in water result is on record as “poor”.

For `Nc1ncnc2nc[nH]c12` [Adenine], in data set [1], the chemical stability result is listed as “chemically stable” and the thermal stability entry was “thermally stable”. In addition, the LD50 value in the data set on rat is 227 mg/kg. The hygroscopicity entry in data set [2] was “non-hygroscopic”.

In the case of `Cc1c[nH]c(=O)[nH]c1=O` [Thymine], in data set [1], the chemical stability entry is “chemically stable” and the thermal stability result was “thermally stable”. Further, in the data set with rat, the LD50 value is 3500 mg/kg. In data set [2], the hygroscopicity entry is recorded as “non-hygroscopic”.
